# Laboratory results taken from the OligoGym collection.
# HELM strings list units from the 5' end as sugar, base in round brackets, then linkage (d deoxyribose, r ribose, m 2'-O-methyl, p phosphodiester). Strings are as the collection lists them, not checked against the first reports. ss, as = sense and antisense strand; [fl2r] = 2'-fluoro
# Conditions: siRNA
# Further: test system not given here.
row,Substance,target mRNA knockdown [%]
1,RNA1{r(G)p.r(C)p.r(G)p.r(A)p.r(G)p.r(C)p.r(A)p.r(G)p.r(A)p.r(G)p.r(A)p.r(A)p.r(U)p.r(C)p.m(U)p.r(A)p.r(C)p.r(C)p.r(U)p.r(T)p.r(T)}|RNA2{r(A)p.r(G)p.r(G)p.m(U)p.r(A)p.r(G)p.r(A)p.r(U)p.r(U)p.r(C)p.r(U)p.r(C)p.r(U)p.r(G)p.r(C)p.r(U)p.r(C)p.r(G)p.r(C)p.r(T)p.r(T)}$$$RNA1{StrandType:ss}|RNA2{StrandType:as}$,90
2,RNA1{r(G)p.r(C)p.r(G)p.r(C)p.r(U)p.r(G)p.r(C)p.r(U)p.r(G)p.r(G)p.r(U)p.r(G)p.r(C)p.r(C)p.r(A)p.r(A)p.r(C)p.r(C)p.r(C)p.d(T)p.d(T)}|RNA2{r(G)p.r(G)p.r(G)p.r(U)p.r(U)p.r(G)p.r(G)p.r(C)p.r(A)p.r(C)p.r(C)p.r(A)p.r(G)p.r(C)p.r(A)p.r(G)p.r(C)p.r(G)p.r(C)p.d(T)p.d(T)}$$$RNA1{StrandType:ss}|RNA2{StrandType:as}$,74
3,RNA1{r(G)p.r(C)p.r(U)p.r(G)p.[fl2r](U)p.r(A)p.r(A)p.r(C)p.r(C)p.r(U)p.r(C)p.r(G)p.r(G)p.r(A)p.r(G)p.r(A)p.r(G)p.r(U)p.r(U)p.r(T)p.r(T)}|RNA2{r(A)p.r(A)p.r(C)p.r(U)p.r(C)p.r(U)p.r(C)p.r(C)p.r(G)p.r(A)p.r(G)p.r(G)p.r(U)p.[fl2r](U)p.r(A)p.r(C)p.r(A)p.r(G)p.r(C)p.r(T)p.r(T)}$$$RNA1{StrandType:ss}|RNA2{StrandType:as}$,69
4,RNA1{r(G)p.r(C)p.r(U)p.r(G)p.r(A)p.r(A)p.r(C)p.[fl2r](U)p.r(A)p.r(G)p.r(U)p.r(C)p.r(G)p.r(A)p.r(A)p.r(A)p.r(G)p.r(A)p.r(A)p.r(T)p.r(T)}|RNA2{r(U)p.r(U)p.r(C)p.r(U)p.r(U)p.r(U)p.r(C)p.r(G)p.r(A)p.r(C)p.[fl2r](U)p.r(A)p.r(G)p.r(U)p.r(U)p.r(C)p.r(A)p.r(G)p.r(C)p.r(T)p.r(T)}$$$RNA1{StrandType:ss}|RNA2{StrandType:as}$,79
5,RNA1{r(G)p.r(C)p.r(U)p.r(G)p.r(A)p.r(G)p.r(G)p.r(A)p.r(A)p.r(A)p.r(G)p.r(G)p.r(G)p.r(A)p.r(C)p.r(A)p.r(U)p.r(C)p.r(U)p.r(T)p.r(T)}|RNA2{r(A)p.r(G)p.m(A)p.m(U)p.r(G)p.r(U)p.r(C)p.r(C)p.r(C)p.r(U)p.r(U)p.r(U)p.r(C)p.r(C)p.r(U)p.r(C)p.r(A)p.r(G)p.r(C)p.r(T)p.r(T)}$$$RNA1{StrandType:ss}|RNA2{StrandType:as}$,78
6,RNA1{r(G)p.r(C)p.r(U)p.r(U)p.m(U)p.m(A)p.r(A)p.r(G)p.r(G)p.r(A)p.r(A)p.r(C)p.m(U)p.r(G)p.r(G)p.r(A)p.r(A)p.r(G)p.r(G)p.r(T)p.r(T)}|RNA2{r(C)p.r(C)p.r(U)p.r(U)p.r(C)p.m(C)p.r(A)p.r(G)p.r(U)p.r(U)p.r(C)p.r(C)p.r(U)p.m(U)p.m(A)p.r(A)p.r(A)p.r(G)p.r(C)p.r(T)p.r(T)}$$$RNA1{StrandType:ss}|RNA2{StrandType:as}$,72
7,RNA1{r(G)p.r(C)p.r(U)p.r(U)p.m(U)p.r(A)p.r(A)p.r(G)p.r(G)p.r(A)p.r(A)p.r(C)p.m(U)p.r(G)p.r(G)p.r(A)p.r(A)p.r(G)p.r(G)p.r(T)p.r(T)}|RNA2{r(C)p.r(C)p.r(U)p.r(U)p.r(C)p.m(C)p.r(A)p.r(G)p.r(U)p.r(U)p.r(C)p.r(C)p.r(U)p.m(U)p.r(A)p.r(A)p.r(A)p.r(G)p.r(C)p.r(T)p.r(T)}$$$RNA1{StrandType:ss}|RNA2{StrandType:as}$,37
8,RNA1{r(G)p.r(C)p.r(U)p.r(U)p.r(C)p.r(G)p.r(G)p.r(A)p.r(A)p.r(A)p.r(C)p.[fl2r](U)p.[fl2r](G)p.r(G)p.r(A)p.[fl2r](C)p.r(A)p.r(U)p.r(C)p.r(T)p.r(T)}|RNA2{r(G)p.r(A)p.[fl2r](U)p.r(G)p.r(U)p.r(C)p.[fl2r](C)p.[fl2r](A)p.r(G)p.r(U)p.r(U)p.r(U)p.r(C)p.r(C)p.r(G)p.r(A)p.r(A)p.r(G)p.r(C)p.r(T)p.r(T)}$$$RNA1{StrandType:ss}|RNA2{StrandType:as}$,87
9,RNA1{r(G)p.r(C)p.r(U)p.r(U)p.r(C)p.r(G)p.r(G)p.r(A)p.r(A)p.r(A)p.r(C)p.r(U)p.r(G)p.r(G)p.r(A)p.[fl2r](C)p.r(A)p.r(U)p.r(C)p.r(T)p.r(T)}|RNA2{r(G)p.r(A)p.[fl2r](U)p.r(G)p.r(U)p.r(C)p.[fl2r](C)p.r(A)p.r(G)p.r(U)p.r(U)p.r(U)p.r(C)p.r(C)p.r(G)p.r(A)p.r(A)p.r(G)p.r(C)p.r(T)p.r(T)}$$$RNA1{StrandType:ss}|RNA2{StrandType:as}$,90
10,RNA1{r(G)p.r(C)p.r(U)p.r(U)p.r(U)p.m(A)p.r(A)p.r(G)p.r(G)p.r(A)p.r(A)p.r(C)p.m(U)p.r(G)p.r(G)p.r(A)p.r(A)p.r(G)p.r(G)p.r(T)p.r(T)}|RNA2{r(C)p.r(C)p.r(U)p.r(U)p.r(C)p.m(C)p.r(A)p.r(G)p.r(U)p.r(U)p.r(C)p.r(C)p.r(U)p.r(U)p.r(A)p.r(A)p.r(A)p.r(G)p.r(C)p.r(T)p.r(T)}$$$RNA1{StrandType:ss}|RNA2{StrandType:as}$,74
11,RNA1{r(G)p.r(C)p.r(U)p.r(U)p.r(U)p.r(A)p.r(A)p.r(G)p.r(G)p.r(A)p.r(A)p.r(C)p.r(U)p.r(G)p.r(G)p.r(A)p.r(A)p.r(G)p.r(G)p.r(T)p.r(T)}|RNA2{r(C)p.r(C)p.r(U)p.r(U)p.r(C)p.r(C)p.r(A)p.r(G)p.r(U)p.r(U)p.r(C)p.r(C)p.r(U)p.m(U)p.r(A)p.r(A)p.r(A)p.r(G)p.r(C)p.r(T)p.r(T)}$$$RNA1{StrandType:ss}|RNA2{StrandType:as}$,37
12,RNA1{r(G)p.r(G)p.m(U)p.m(A)p.r(G)p.r(A)p.r(A)p.m(U)p.r(A)p.r(G)p.r(G)p.r(U)p.r(U)p.r(U)p.r(U)p.r(C)p.r(C)p.r(C)p.r(C)p.r(T)p.r(T)}|RNA2{r(G)p.r(G)p.r(G)p.r(G)p.r(A)p.r(A)p.r(A)p.r(A)p.r(C)p.r(C)p.m(U)p.r(A)p.r(U)p.r(U)p.r(C)p.m(U)p.r(A)p.r(C)p.r(C)p.r(T)p.r(T)}$$$RNA1{StrandType:ss}|RNA2{StrandType:as}$,45
13,RNA1{r(G)p.r(G)p.m(U)p.r(A)p.r(G)p.r(A)p.r(A)p.r(U)p.r(A)p.r(G)p.r(G)p.r(U)p.r(U)p.r(U)p.r(U)p.r(C)p.r(C)p.r(C)p.r(C)p.r(T)p.r(T)}|RNA2{r(G)p.r(G)p.r(G)p.r(G)p.r(A)p.r(A)p.r(A)p.r(A)p.r(C)p.r(C)p.m(U)p.r(A)p.r(U)p.r(U)p.r(C)p.r(U)p.r(A)p.r(C)p.r(C)p.r(T)p.r(T)}$$$RNA1{StrandType:ss}|RNA2{StrandType:as}$,82
14,RNA1{r(G)p.r(G)p.m(U)p.r(A)p.r(G)p.r(G)p.r(G)p.r(U)p.m(U)p.r(G)p.r(A)p.r(A)p.r(G)p.r(A)p.r(G)p.r(A)p.r(C)p.r(U)p.r(U)p.r(T)p.r(T)}|RNA2{r(A)p.r(A)p.r(G)p.r(U)p.r(C)p.r(U)p.r(C)p.r(U)p.r(U)p.m(C)p.r(A)p.r(A)p.r(C)p.r(C)p.r(C)p.m(U)p.r(A)p.r(C)p.r(C)p.r(T)p.r(T)}$$$RNA1{StrandType:ss}|RNA2{StrandType:as}$,94
15,RNA1{r(G)p.r(G)p.r(A)p.m(C)p.m(U)p.r(A)p.m(C)p.m(U)p.r(A)p.r(A)p.m(C)p.m(C)p.m(U)p.m(C)p.m(C)p.r(A)p.r(G)p.m(U)p.m(U)p.r(T)p.r(T)}|RNA2{r(A)p.r(A)p.m(C)p.m(U)p.r(G)p.r(G)p.r(A)p.r(G)p.r(G)p.m(U)p.m(U)p.r(A)p.r(G)p.m(U)p.r(A)p.r(G)p.m(U)p.m(C)p.m(C)p.r(T)p.r(T)}$$$RNA1{StrandType:ss}|RNA2{StrandType:as}$,7
16,RNA1{r(G)p.r(G)p.r(A)p.r(A)p.m(G)p.r(U)p.r(A)p.r(A)p.r(G)p.r(G)p.r(A)p.r(C)p.r(C)p.r(A)p.r(G)p.r(A)p.r(G)p.r(A)p.r(C)p.r(T)p.r(T)}|RNA2{r(G)p.r(U)p.r(C)p.r(U)p.r(C)p.r(U)p.r(G)p.r(G)p.r(U)p.r(C)p.r(C)p.r(U)p.m(U)p.r(A)p.r(C)p.r(U)p.r(U)p.r(C)p.r(C)p.r(T)p.r(T)}$$$RNA1{StrandType:ss}|RNA2{StrandType:as}$,44
17,RNA1{r(G)p.r(G)p.r(A)p.r(A)p.r(G)p.m(U)p.r(A)p.r(A)p.r(G)p.r(G)p.r(A)p.r(C)p.m(C)p.r(A)p.r(G)p.r(A)p.r(G)p.r(A)p.r(C)p.r(T)p.r(T)}|RNA2{r(G)p.r(U)p.r(C)p.r(U)p.r(C)p.m(U)p.r(G)p.r(G)p.r(U)p.r(C)p.r(C)p.r(U)p.m(U)p.r(A)p.r(C)p.r(U)p.r(U)p.r(C)p.r(C)p.r(T)p.r(T)}$$$RNA1{StrandType:ss}|RNA2{StrandType:as}$,41
18,RNA1{r(G)p.r(G)p.r(A)p.r(A)p.r(G)p.r(A)p.r(A)p.r(G)p.r(A)p.[fl2r](U)p.r(A)p.r(G)p.r(A)p.r(G)p.[fl2r](C)p.r(A)p.r(U)p.r(C)p.r(C)p.r(T)p.r(T)}|RNA2{r(G)p.r(G)p.r(A)p.[fl2r](U)p.r(G)p.r(C)p.r(U)p.r(C)p.[fl2r](U)p.r(A)p.r(U)p.r(C)p.r(U)p.r(U)p.r(C)p.r(U)p.r(U)p.r(C)p.r(C)p.r(T)p.r(T)}$$$RNA1{StrandType:ss}|RNA2{StrandType:as}$,37
19,RNA1{r(G)p.r(G)p.r(A)p.r(A)p.r(G)p.r(A)p.r(A)p.r(G)p.r(A)p.r(U)p.r(A)p.r(G)p.r(A)p.r(G)p.r(C)p.r(A)p.r(U)p.r(C)p.r(C)p.r(T)p.r(T)}|RNA2{r(G)p.r(G)p.r(A)p.r(U)p.r(G)p.r(C)p.r(U)p.r(C)p.[fl2r](U)p.r(A)p.r(U)p.r(C)p.r(U)p.r(U)p.r(C)p.r(U)p.r(U)p.r(C)p.r(C)p.r(T)p.r(T)}$$$RNA1{StrandType:ss}|RNA2{StrandType:as}$,37
20,RNA1{r(G)p.r(G)p.r(A)p.r(A)p.r(G)p.r(U)p.r(C)p.m(C)p.m(A)p.r(C)p.r(C)p.m(U)p.m(U)p.r(C)p.r(U)p.r(C)p.r(C)p.r(G)p.r(A)p.r(T)p.r(T)}|RNA2{r(U)p.r(C)p.r(G)p.r(G)p.r(A)p.r(G)p.r(A)p.r(A)p.r(G)p.r(G)p.m(U)p.r(G)p.r(G)p.r(A)p.r(C)p.r(U)p.r(U)p.r(C)p.r(C)p.r(T)p.r(T)}$$$RNA1{StrandType:ss}|RNA2{StrandType:as}$,51
